# Experimental data reported in PMC11672637, “7-O-Carboxylic Acid-Substituted 3-O-Alkyl Difluoroquercetin; An Aztreonam-Potentiating Agent Against Carbapenemase-Producing Pseudomonas aeruginosa Through Simultaneous Inhibition of Metallo-β-Lactamase and Efflux Pump” (Antibiotics, 2024).
# Where two headings read alike, the source gives them in different places.
# Columns and labels:
# Type in all cases: cell-based, P. aeruginosa
# [1] = test system: PA-014, blaGES; experiment: MIC / checkerboard with ATM; conditions: for MIC: Pseudomonas aeruginosa, read-out: MIC of ATM with 5, PA-014
# [2] = test system: PA-002, blaIMP; experiment: MIC / checkerboard with ATM; conditions: for MIC: Pseudomonas aeruginosa, read-out: MIC of ATM with 5, PA-002
# [3] = test system: PA-034, blaNDM; experiment: MIC / checkerboard with ATM; conditions: for MIC: Pseudomonas aeruginosa, read-out: MIC of ATM with 5, PA-034
# [4] = test system: ATM-Resistant CPPA (n = 15); experiment: MIC distribution over clinical isolates; conditions: for inhibition at 1 µg/mL / inhibition at 2 µg/mL / inhibition at 4 µg/mL / inhibition at 8 µg/mL / inhibition at 16 µg/mL / inhibition at 32 µg/mL / inhibition at 64 µg/mL / MIC50: Pseudomonas aeruginosa; for inhibition at 1 µg/mL: read-out: Cumulative % inhibition by ATM, 5 at 1 mg/L; for inhibition at 2 µg/mL: read-out: Cumulative % inhibition by ATM, 5 at 2 mg/L; for inhibition at 4 µg/mL: read-out: Cumulative % inhibition by ATM, 5 at 4 mg/L; for inhibition at 8 µg/mL: read-out: Cumulative % inhibition by ATM, 5 at 8 mg/L; for inhibition at 16 µg/mL: read-out: Cumulative % inhibition by ATM, 5 at 16 mg/L; for inhibition at 32 µg/mL: read-out: Cumulative % inhibition by ATM, 5 at 32 mg/L; for inhibition at 64 µg/mL: read-out: Cumulative % inhibition by ATM, 5 at 64 mg/L
compound,measurement,setting,value
"CC(C)(C)CCOc1c(-c2ccc(F)c(F)c2)oc2cc(OCC(=O)O)cc(O)c2c1=O [Compound 5, 2-((2-(3,4-Difluorophenyl)-3-(3,3-dimethylbutoxy)-5-hydroxy-4-oxo-4H-chromen-7-yl)oxy)acetic Acid]",Activity (FICI class),[1]; PA-014,"S (S (Synergy, FICI ≤ 0.5))"
same,Concentrations of ATM and 5 at lowest FICI (ATM/5),[1]; PA-014,4/16
same,Lowest FICI (ATM/5),[1]; PA-014,0.28
same,Minimum concentration of 5 to make sensitive to ATM,[1]; PA-014,4 mg/L
same,Susceptibility to ATM,"[1]; PA-014, ATM/5","S (S (sensitive, MIC ≤ 8 mg/L))"
same,FD (fold decrease in MIC of ATM with 5),"[1]; PA-014, lowest-FICI combination",4
same,MIC,[1]; 5 at 1 mg/L,16 µg/mL
same,MIC,[1]; 5 at 2 mg/L,16 µg/mL
same,MIC,[1]; 5 at 4 mg/L,8 µg/mL
same,MIC,[1]; 5 at 8 mg/L,8 µg/mL
same,MIC,[1]; 5 at 16 mg/L,4 µg/mL
same,MIC,[1]; 5 at 32 mg/L,4 µg/mL
same,MIC,[1]; 5 at 64 mg/L,4 µg/mL
same,Activity (FICI class),[2]; PA-002,"S (S (Synergy, FICI ≤ 0.5))"
same,Concentrations of ATM and 5 at lowest FICI (ATM/5),[2]; PA-002,8/4
same,Lowest FICI (ATM/5),[2]; PA-002,0.26
same,Minimum concentration of 5 to make sensitive to ATM,[2]; PA-002,4 mg/L
same,Susceptibility to ATM,"[2]; PA-002, ATM/5","S (S (sensitive, MIC ≤ 8 mg/L))"
same,FD (fold decrease in MIC of ATM with 5),"[2]; PA-002, lowest-FICI combination",4
same,MIC,[2]; 5 at 1 mg/L,16 µg/mL
same,MIC,[2]; 5 at 2 mg/L,16 µg/mL
same,MIC,[2]; 5 at 4 mg/L,8 µg/mL
same,MIC,[2]; 5 at 8 mg/L,8 µg/mL
same,MIC,[2]; 5 at 16 mg/L,4 µg/mL
same,MIC,[2]; 5 at 32 mg/L,4 µg/mL
same,MIC,[2]; 5 at 64 mg/L,2 µg/mL
same,Activity (FICI class),[3]; PA-034,"S (S (Synergy, FICI ≤ 0.5))"
same,Concentrations of ATM and 5 at lowest FICI (ATM/5),[3]; PA-034,4/8
same,Lowest FICI (ATM/5),[3]; PA-034,0.27
same,Minimum concentration of 5 to make sensitive to ATM,[3]; PA-034,4 mg/L
same,Susceptibility to ATM,"[3]; PA-034, ATM/5","S (S (sensitive, MIC ≤ 8 mg/L))"
same,FD (fold decrease in MIC of ATM with 5),"[3]; PA-034, lowest-FICI combination",4
same,MIC,[3]; 5 at 1 mg/L,16 µg/mL
same,MIC,[3]; 5 at 2 mg/L,16 µg/mL
same,MIC,[3]; 5 at 4 mg/L,8 µg/mL
same,MIC,[3]; 5 at 8 mg/L,4 µg/mL
same,MIC,[3]; 5 at 16 mg/L,4 µg/mL
same,MIC,[3]; 5 at 32 mg/L,4 µg/mL
same,MIC,[3]; 5 at 64 mg/L,4 µg/mL
same,ATM-non-susceptible pathogens (MIC ≥ 16 mg/L) converted into sensitive ones by combination with 5,[4],14 out of 15
same,inhibition at 1 µg/mL,[4]; ATM 0.5 mg/L,0%
same,inhibition at 1 µg/mL,[4]; ATM 1 mg/L,0%
same,inhibition at 1 µg/mL,[4]; ATM 2 mg/L,0%
same,inhibition at 1 µg/mL,[4]; ATM 4 mg/L,0%
same,inhibition at 1 µg/mL,[4]; ATM 8 mg/L,7%
same,inhibition at 1 µg/mL,[4]; ATM 16 mg/L,67%
same,inhibition at 1 µg/mL,[4]; ATM 32 mg/L,100%
same,inhibition at 1 µg/mL,[4]; ATM 64 mg/L,100%
same,inhibition at 2 µg/mL,[4]; ATM 0.5 mg/L,0%
same,inhibition at 2 µg/mL,[4]; ATM 1 mg/L,0%
same,inhibition at 2 µg/mL,[4]; ATM 2 mg/L,0%
same,inhibition at 2 µg/mL,[4]; ATM 4 mg/L,0%
same,inhibition at 2 µg/mL,[4]; ATM 8 mg/L,7%
same,inhibition at 2 µg/mL,[4]; ATM 16 mg/L,87%
same,inhibition at 2 µg/mL,[4]; ATM 32 mg/L,100%
same,inhibition at 2 µg/mL,[4]; ATM 64 mg/L,100%
same,inhibition at 4 µg/mL,[4]; ATM 0.5 mg/L,0%
same,inhibition at 4 µg/mL,[4]; ATM 1 mg/L,0%
same,inhibition at 4 µg/mL,[4]; ATM 2 mg/L,0%
same,inhibition at 4 µg/mL,[4]; ATM 4 mg/L,7%
same,inhibition at 4 µg/mL,[4]; ATM 8 mg/L,67%
same,inhibition at 4 µg/mL,[4]; ATM 16 mg/L,100%
same,inhibition at 4 µg/mL,[4]; ATM 32 mg/L,100%
same,inhibition at 4 µg/mL,[4]; ATM 64 mg/L,100%
same,inhibition at 8 µg/mL,[4]; ATM 0.5 mg/L,0%
same,inhibition at 8 µg/mL,[4]; ATM 1 mg/L,0%
same,inhibition at 8 µg/mL,[4]; ATM 2 mg/L,0%
same,inhibition at 8 µg/mL,[4]; ATM 4 mg/L,47%
same,inhibition at 8 µg/mL,[4]; ATM 8 mg/L,80%
same,inhibition at 8 µg/mL,[4]; ATM 16 mg/L,100%
same,inhibition at 8 µg/mL,[4]; ATM 32 mg/L,100%
same,inhibition at 8 µg/mL,[4]; ATM 64 mg/L,100%
same,inhibition at 16 µg/mL,[4]; ATM 0.5 mg/L,0%
same,inhibition at 16 µg/mL,[4]; ATM 1 mg/L,0%
same,inhibition at 16 µg/mL,[4]; ATM 2 mg/L,13%
same,inhibition at 16 µg/mL,[4]; ATM 4 mg/L,67%
same,inhibition at 16 µg/mL,[4]; ATM 8 mg/L,93%
same,inhibition at 16 µg/mL,[4]; ATM 16 mg/L,100%
same,inhibition at 16 µg/mL,[4]; ATM 32 mg/L,100%
same,inhibition at 16 µg/mL,[4]; ATM 64 mg/L,100%
same,inhibition at 32 µg/mL,[4]; ATM 0.5 mg/L,0%
same,inhibition at 32 µg/mL,[4]; ATM 1 mg/L,0%
same,inhibition at 32 µg/mL,[4]; ATM 2 mg/L,20%
same,inhibition at 32 µg/mL,[4]; ATM 4 mg/L,80%
same,inhibition at 32 µg/mL,[4]; ATM 8 mg/L,93%
same,inhibition at 32 µg/mL,[4]; ATM 16 mg/L,100%
same,inhibition at 32 µg/mL,[4]; ATM 32 mg/L,100%
same,inhibition at 32 µg/mL,[4]; ATM 64 mg/L,100%
same,inhibition at 64 µg/mL,[4]; ATM 0.5 mg/L,0%
same,inhibition at 64 µg/mL,[4]; ATM 1 mg/L,7%
same,inhibition at 64 µg/mL,[4]; ATM 2 mg/L,27%
same,inhibition at 64 µg/mL,[4]; ATM 4 mg/L,87%
same,inhibition at 64 µg/mL,[4]; ATM 8 mg/L,93%
same,inhibition at 64 µg/mL,[4]; ATM 16 mg/L,100%
same,inhibition at 64 µg/mL,[4]; ATM 32 mg/L,100%
same,inhibition at 64 µg/mL,[4]; ATM 64 mg/L,100%
same,MIC50,"[4]; read-out: MIC50 of ATM, 5 at 1 mg/L",16 µg/mL
same,MIC50,"[4]; read-out: MIC50 of ATM, 5 at 2 mg/L",16 µg/mL
same,MIC50,"[4]; read-out: MIC50 of ATM, 5 at 4 mg/L",8 µg/mL
same,MIC50,"[4]; read-out: MIC50 of ATM, 5 at 8 mg/L",8 µg/mL
same,MIC50,"[4]; read-out: MIC50 of ATM, 5 at 16 mg/L",4 µg/mL
